In US8357694B2, “Substituted 5,6-dihydro-6-phenylbenzo[F]isoquinolin-2-amine compounds” (ArQule, Inc., priority 2008, dated 2013):
Counter-ions that a name gives are not always drawn.

melting point | Structure (SMILES)
182 to 186 °C | CN1CCN(CCc2cccc(Nc3ncc4c(n3)-c3ccccc3[C@H](c3ccccc3F)C4)c2)CC1 (as salt: hydrochloride) [Example 161, (R)-6-(2-fluorophenyl)-N-(3-(2-(4-methylpiperazin-1-yl)ethyl)phenyl)-5,6-dihydrobenzo[h]quinazolin-2-amine hydrochloride]
98 to 100 °C | Brc1cccc(C2Cc3cnc(Nc4ccc(CCNCc5ccccc5)cc4)nc3-c3ccccc32)c1 (centres unmarked) [Example 46, N-(4-(2-(benzylamino)ethyl)phenyl)-6-(3-bromophenyl)-5,6-dihydrobenzo[h]quinazolin-2-amine]
167 to 172 °C | CN(CCc1ccc(Nc2ncc3c(n2)-c2ccccc2[C@H](c2cccc(Br)c2)C3)cc1)C1CCCCC1 (as salt: hydrochloride) [Example 79, (S)-6-(3-bromophenyl)-N-(4-(2-(cyclohexyl(methyl)amino)ethyl)phenyl)-5,6-dihydrobenzo[h]quinazolin-2-amine hydrochloride]
113 to 115 °C | OCCc1ccc(Nc2ncc3c(n2)-c2ccccc2[C@@H](c2ccc(Cl)c(Cl)c2)C3)cc1
105 to 107 °C | COCCN1CCN(CCc2ccc(Nc3ncc4c(n3)-c3ccccc3C(c3cccc(Br)c3)C4)cc2)CC1 (centres unmarked) [Example 32, 6-(3-bromophenyl)-N-(4-(2-(4-(2-methoxyethyl)piperazin-1-yl)ethyl)phenyl)-5,6-dihydrobenzo[h]quinazolin-2-amine]
190 to 192 °C | COCCN1CCN(CCc2ccc(Nc3ncc4c(n3)-c3ccccc3[C@@H](c3ccc(F)c(F)c3)C4)cc2)CC1 (as salt: hydrochloride) [Example 90, (R)-6-(3,4-difluorophenyl)-N-(4-(2-(4-(2-methoxyethyl)piperazin-1-yl)ethyl)phenyl)-5,6-dihydrobenzo[h]quinazolin-2-amine hydrochloride]
68 to 70 °C | CN(C)CCN(CCc1ccc(Nc2ncc3c(n2)-c2ccccc2C(c2cccc(Br)c2)C3)cc1)Cc1ccccc1 (centres unmarked) [Example 38, N^1-benzyl-N-1-(4-(6-(3-bromophenyl)-5,6-dihydrobenzo[h]quinazolin-2-ylamino)phenethyl)-N^2,N^2-dimethylethane-1,2-diamine]
170 to 175 °C | Brc1ccc([C@H]2Cc3cnc(Nc4ccc(CCN5CCCCC5)cc4)nc3-c3ccccc32)cc1 (as salt: hydrochloride) [Example 108, (R)-6-(4-bromophenyl)-N-(4-(2-(piperidin-1-yl)ethyl)phenyl)-5,6-dihydrobenzo[h]quinazolin-2-amine hydrochloride salt]
135 to 145 °C | CCCCN(C)CCc1ccc(Nc2ncc3c(n2)-c2ccccc2[C@H](c2ccc(Cl)c(Cl)c2)C3)cc1 (as salt: hydrochloride) [Example 105, (S)—N-(4-(2-(butyl(methyl)amino)ethyl)phenyl)-6-(3,4-dichlorophenyl)-5,6-dihydrobenzo[h]quinazolin-2-amine hydrochloride salt]
75 to 77 °C | CCCCN(C)CCc1ccc(Nc2ncc3c(n2)-c2ccccc2[C@H](c2ccc(Cl)cc2)C3)cc1 (as salt: hydrochloride)
120 to 125 °C | Brc1cccc([C@@H]2Cc3cnc(Nc4ccc(CCN5CCCCC5)cc4)nc3-c3ccccc32)c1 (as salt: hydrochloride) [Example 78, (S)-6-(3-bromophenyl)-N-(4-(2-(piperidin-1-yl)ethyl)phenyl)-5,6-dihydrobenzo[h]quinazolin-2-amine hydrochloride]
58 to 60 °C | COCCN(CCOC)CCc1ccc(Nc2ncc3c(n2)-c2ccccc2C(c2cccc(Br)c2)C3)cc1 (centres unmarked) [Example 42, N-(4-(2-(bis(2-methoxyethyl)amino)ethyl)phenyl)-6-(3-bromophenyl)-5,6-dihydrobenzo[h]quinazolin-2-amine]
198 to 201 °C | COCCNCCc1ccc(Nc2ncc3c(n2)-c2ccccc2[C@H](c2ccccc2F)C3)cc1 (as salt: hydrochloride) [Example 94, (R)-6-(2-fluorophenyl)-N-(4-(2-(2-methoxyethylamino)ethyl)phenyl)-5,6-dihydrobenzo[h]quinazolin-2-amine hydrochloride salt]
212 to 216 °C | COCCN1CCN(CCc2ccc(Nc3ncc4c(n3)-c3ccccc3[C@H](c3ccccc3F)C4)cc2)CC1 (as salt: hydrochloride) [Example 66, (R)-6-(2-fluorophenyl)-N-(4-(2-(4-(2-methoxyethyl)piperazin-1-yl)ethyl)phenyl)-5,6-dihydrobenzo[h]quinazolin-2-amine hydrochloride]
157 to 158 °C | Clc1ccc([C@H]2Cc3cnc(Nc4ccc(CCN5CCCCC5)cc4)nc3-c3ccccc32)cc1Cl
90 to 92 °C | CN1CCN(CCc2ccc(Nc3ncc4c(n3)-c3ccccc3[C@H](c3ccc(F)c(F)c3)C4)cc2)CC1 (as salt: hydrochloride) [Example 88, (S)-6-(3,4-difluorophenyl)-N-(4-(2-(4-methylpiperazin-1-yl)ethyl)phenyl)-5,6-dihydrobenzo[h]quinazolin-2-amine hydrochloride]

melting point | Structure (SMILES)
97 to 99 °C | Fc1ccc([C@@H]2Cc3cnc(Nc4ccc(CCN5CCOCC5)cc4)nc3-c3ccccc32)cc1F (as salt: hydrochloride) [Example 92, (S)-6-(3,4-difluorophenyl)-N-(4-(2-morpholinoethyl)phenyl)-5,6-dihydrobenzo[h]quinazolin-2-amine hydrochloride]
199 to 201 °C | COCCN1CCN(CCc2cc(Nc3ncc4c(n3)-c3ccccc3[C@H](c3ccccc3F)C4)ccc2F)CC1 (as salt: hydrochloride) [Example 175, (R)—N-(4-fluoro-3-(2-(4-(2-methoxyethyl)piperazin-1-yl)ethyl)phenyl)-6-(2-fluorophenyl)-5,6-dihydrobenzo[h]quinazolin-2-amine hydrochloride salt]
165 to 169 °C | Clc1ccc([C@@H]2Cc3cnc(Nc4cccc(CCN5CCCCC5)c4)nc3-c3ccccc32)cc1Cl (as salt: hydrochloride) [Example 167, (S)-6-(3,4-dichlorophenyl)-N-(3-(2-(piperidin-1-yl)ethyl)phenyl)-5,6-dihydrobenzo[h]quinazolin-2-amine hydrochloride]
110 to 114 °C | CN(C)CCCNc1ncc2c(n1)-c1ccccc1C(c1ccc(Cl)c(Cl)c1)C2 (centres unmarked) [Example 11, N^1-(6-(3,4-dichlorophenyl)-5,6-dihydrobenzo[h]quinazolin-2-yl)-N^3,N^3-dimethylpropane-1,3-diamine]
78 to 81 °C | CCCCN(C)CCc1ccc(Nc2ncc3c(n2)-c2ccccc2[C@H](c2ccccc2F)C3)cc1 (as salt: hydrochloride) [Example 110, (R)—N-(4-(2-(butyl(methyl)amino)ethyl)phenyl)-6-(2-fluorophenyl)-5,6-dihydrobenzo[h]quinazolin-2-amine hydrochloride]
165 to 167 °C | CN(C)CCc1ccc(Nc2ncc3c(n2)-c2ccccc2[C@H](c2ccc(F)c(F)c2)C3)cc1 (as salt: hydrochloride) [Example 87, (S)-6-(3,4-difluorophenyl)-N-(4-(2-(dimethylamino)ethyl)phenyl)-5,6-dihydrobenzo[h]quinazolin-2-amine hydrochloride]
146 to 153 °C | CCCCN(C)CCc1ccc(Nc2ncc3c(n2)-c2ccccc2[C@H](c2cccc(Br)c2)C3)cc1 (as salt: hydrochloride) [Example 80, (S)-6-(3-bromophenyl)-N-(4-(2-(butyl(methyl)amino)ethyl)phenyl)-5,6-dihydrobenzo[h]quinazolin-2-amine hydrochloride]
85 to 87 °C | CC(C)(C)OC(=O)N1CCC[C@@H](Nc2ncc3c(n2)-c2ccccc2[C@@H](c2ccc(Cl)c(Cl)c2)C3)C1
148 to 150 °C | COCCN1CCN(CCc2cccc(Nc3ncc4c(n3)-c3ccccc3[C@@H](c3ccccc3F)C4)c2)CC1 (as salt: hydrochloride) [Example 164, (S)-6-(2-fluorophenyl)-N-(3-(2-(4-(2-methoxyethyl)piperazin-1-yl)ethyl)phenyl)-5,6-dihydrobenzo[h]quinazolin-2-amine]
225 to 229 °C | CN1CCN(CCc2cc(Nc3ncc4c(n3)-c3ccccc3[C@H](c3ccccc3F)C4)ccc2F)CC1 (as salt: hydrochloride) [Example 174, (R)—N-(4-fluoro-3-(2-(4-methylpiperazin-1-yl)ethyl)phenyl)-6-(2-fluorophenyl)-5,6-dihydrobenzo[h]quinazolin-2-amine hydrochloride salt]
154 to 157 °C | CN(CCc1ccccc1)CCc1cccc(Nc2ncc3c(n2)-c2ccccc2[C@H](c2ccc(Cl)c(Cl)c2)C3)c1 (as salt: hydrochloride)
261 to 263 °C | COCCN1CCN(CCc2ccc(Nc3ncc4c(n3)-c3ccccc3[C@H](c3ccc(Cl)cc3)C4)cc2)CC1 (as salt: hydrochloride) [Example 113, (S)-6-(4-chlorophenyl)-N-(4-(2-(4-(2-methoxyethyl)piperazin-1-yl)ethyl)phenyl)-5,6-dihydrobenzo[α]quinazolin-2-amine hydrochloride]
170 to 172 °C | OCCc1ccc(Nc2ncc3c(n2)-c2ccccc2C(c2ccc(F)c(F)c2)C3)cc1 (centres unmarked) [Example 23, 2-(4-(6-(3,4-difluorophenyl)-5,6-dihydrobenzo[h]quinazolin-2-ylamino)phenyl)ethanol]
159 to 160 °C | Nc1ncc2c(n1)-c1ccccc1C(c1ccc(Cl)c(Cl)c1)C2 (centres unmarked)
92 to 94 °C | Brc1cccc(C2Cc3cnc(Nc4ccc(CCNc5ccccc5)cc4)nc3-c3ccccc32)c1 (centres unmarked) [Example 35, 6-(3-bromophenyl)-N-(4-(2-(phenylamino)ethyl)phenyl)-5,6-dihydrobenzo[h]quinazolin-2-amine]
59 to 62 °C | CN(C)CCCNc1ncc2c(n1)-c1ccccc1[C@@H](c1ccc(Cl)c(Cl)c1)C2 [Example 12, (R)—N^1-(6-(3,4-dichlorophenyl)-5,6-dihydrobenzo[h]quinazolin-2-yl)-N^3,N^3-dimethylpropane-1,3-diamine]
